Laboratory results: US8895069B2, “Drug delivery system using hyaluronic acid-peptide conjugate micelle” (Postech Academy-Industry Foundation, priority 2011, dated 2014)
Ends that are not written are not given here.

Assays:
[1] = Appearance / water solubility in aqueous solution; type: physicochemical; details: PBS, final peptide concentration 1.25 mg/mL
Procedure: The anti-Flt1 peptide (GGNQWFI) (SEQ ID NO: 3) and the hyaluronic acid-peptide conjugate with a lower peptide content as prepared from Preparation Example 3 were dissolved in 4004, of PBS to have a final peptide concentration of 1.25 mg/mL, respectively. The amount of the anti-Flt1 peptide contained in each solution was measured with a changeable UV transilluminator (DUT-260, Core Bio System, Korea) by using 312 nm of light source. The formation of the hyaluronic acid-peptide micelle in an aqueous solution was confirmed by using a transmission electron microscope (TEM) (Hitachi, Tokyo, Japan). For a TEM analysis, 10 μL of the hyaluronic acid-peptide conjugate solution was dropped onto a 300 mesh copper TEM grid with a carbon film and then was dried. The average particle size was calculated out from the diameters obtained from the images of 30 particles.

[2] = target: T1, binding between Flt1-Fc and VEGF165 (Homo sapiens, UniProt P17948); assay: Inhibition of binding between Flt1-Fc and VEGF165 (chemiluminescence ELISA)
T1 construct: purchased R&D Systems
T1 sequence (P17948 with tags, fused parts or gaps isoform P17948-2 limits assumed): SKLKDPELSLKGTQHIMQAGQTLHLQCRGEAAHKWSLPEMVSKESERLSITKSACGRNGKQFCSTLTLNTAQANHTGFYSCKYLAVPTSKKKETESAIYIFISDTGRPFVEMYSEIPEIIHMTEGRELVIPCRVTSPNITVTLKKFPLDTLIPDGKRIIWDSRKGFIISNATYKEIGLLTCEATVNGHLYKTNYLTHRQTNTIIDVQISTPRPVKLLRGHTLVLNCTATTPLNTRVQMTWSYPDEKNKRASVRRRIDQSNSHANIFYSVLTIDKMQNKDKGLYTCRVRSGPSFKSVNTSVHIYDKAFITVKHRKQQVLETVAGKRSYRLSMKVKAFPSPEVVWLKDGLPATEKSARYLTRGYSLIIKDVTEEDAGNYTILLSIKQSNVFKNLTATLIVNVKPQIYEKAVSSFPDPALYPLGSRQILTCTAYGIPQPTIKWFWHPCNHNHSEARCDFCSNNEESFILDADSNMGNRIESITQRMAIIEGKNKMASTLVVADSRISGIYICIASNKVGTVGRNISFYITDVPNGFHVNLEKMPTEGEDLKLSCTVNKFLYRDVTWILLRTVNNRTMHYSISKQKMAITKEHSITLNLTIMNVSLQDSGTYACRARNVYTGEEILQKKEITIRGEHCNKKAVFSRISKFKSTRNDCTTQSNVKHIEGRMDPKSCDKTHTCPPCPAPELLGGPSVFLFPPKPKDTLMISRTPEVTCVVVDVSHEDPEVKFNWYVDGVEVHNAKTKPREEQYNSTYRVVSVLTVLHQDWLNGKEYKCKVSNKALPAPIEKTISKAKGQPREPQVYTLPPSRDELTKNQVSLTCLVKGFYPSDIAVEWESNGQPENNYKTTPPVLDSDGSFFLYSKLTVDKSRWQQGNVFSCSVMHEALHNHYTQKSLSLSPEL
Procedure: A VEGF165 solution (with a concentration in PBS of 0.5 μg/mL) (R&D System) was put into 96-black well-plate, and reacted overnight at 4° C. to give a VEGF165-coated well. After being washed with PBS, the well was blocked with a blocking buffer (which is a BSA solution with BSA(Sigma-Aldrich) dissolved therein at a concentration of 3 wt % in a PBS buffer solution at pH 7.4) and washed again with PBS (at room temperature for 2 hours). The solutions of the anti-Flt1 peptide (GGNQWFI) (SEQ ID NO: […]) (SEQ ED NO: 3) and 500 ng/mL of Flt1-Fc (R&D systems, Minneapolis, Minn.) in a solution of BSA(Sigma-Aldrich) as dissolved in PBS (pH 7.4) at 1 wt %, or the solution of the hyaluronic acid-peptide conjugate with a lower peptide content of Preparation Example 3 test group (HA-GGNQWFI) (as prepared by conjugating 20 peptides per one HA-TBA molecule) was added to the VEGF165-coated well, and incubated at room temperature for one hour. […] Then, after the well was washed with a PBS comprising 0.05 wt % of Tween 20 three times and washed with a PBS once, the amount of the conjugated Flt1-Fc was measured with BM chemiluminescence ELISA substrate system (Victor 3 luminometer, PerkinElmer, Mass.). […]
The luminescence value of the positive control group without being treated with anti-FR1 peptide was set to be 100% and other data were normalized.

[3] = test system: methacholine airway hyper-responsiveness; assay: Methacholine airway hyper-responsiveness (Penh) in OVA/LPS asthma model; type: in vivo, BALB/c mice; details: 24 hours after the last allergen challenge, intranasal
Procedure: The biological activity of the hyaluronic acid-peptide conjugate with a lower peptide concentration (HA-GGNQWFI) in accordance with Preparation Example 3 was measured through the reaction to methacholine. Specifically, as to the airway hyper-responsiveness (AHR), the laboratory rat (in vivo) was made to keep exercising naturally without being put under anesthesia and the enhanced pause (Penh), the number reflecting the airway obstruction as represented by Mathematical Equation 1 was measured by using plethysmography. In this experimentation was used a non-invasive method wherein the measurement was conducted without correcting or putting the laboratory animal under anesthesia. Penh=[(Te/RT−1)×(PEF/PIF)] [Mathematical Equation 1]
In Mathematical Equation 1, Te represents an expiratory time (seconds), RT represents a relaxation time (seconds), PEF represents a peak expiratory flow […], and PIF represents a peak inspiratory flow (ml/s).
As the laboratory mouse, BALB/c mice (female, 6 week old, 5 per each group) were used. […]
The pulmonary function was measured on the 23th day by using the non-invasive whole body plethysmographs for the mouse that was not put under anesthesia. […] The aerosol was prepared by using an ultrasonic nebulizer and the laboratory mouse was exposed to methacholine for 3 minutes and then the Penh was measured for 5 minutes.

inhibition of the bonding between VEGF165 and Flt1-Fc ([2]; at 200 nM)	inhibition of the bonding between VEGF165 and Flt1-Fc, up to ([2]; dose-dependent, 20-20000 nM peptide, positive control set to 100%)	Substance	appearance in the aqueous solution (water solubility) [1]	methacholine airway hyper-responsiveness [3]
failed to inhibit		GGNQWFI [anti-Flt1 peptide, GGNQWFI]	became turbid	inferior to the hyaluronic acid-peptide conjugate
	about 32%	HA-GGNQWFI: hyaluronic acid (MW 100 kDa) conjugated with GGNQWFI, 20 peptides per one molecule of HA-TBA (also: conjugated to hyaluronic acid, about 20 peptides per HA)	became clear	greatly reduced to a level similar to that of the normal control group
